Results reported in ChEMBL document CHEMBL1134735, “Synthesis and photodynamic action of diphenyl-2,3-dihydroxychlorin: a potential tumor photosensitizer” (2001).

Experiment: The dark toxicity against 543 human galactophore carcinoma cells
Format: functional

## OC1c2cc3ccc([nH]3)c(-c3ccccc3)c3ccc(cc4nc(c(-c5ccccc5)c(n2)C1O)C=C4)[nH]3 (stereo unspecified)
  IC90: > 32 µg/mL
